Laboratory results: publication PMC12615753, “Glutathione as a taste modulator: molecular mechanisms of interaction with umami and sweet taste receptors” (Food Chemistry: Molecular Sciences, 2025)

Target: T1, hTAS1R1 S306A/rTAS1R3 (Homo sapiens, UniProt Q7RTX1, S306A)
T1 construct: expressed in transfected cells; host or cells: HEK293T/17 (ATCC CRL-11268)
T1 sequence (Q7RTX1 21-841 S306A): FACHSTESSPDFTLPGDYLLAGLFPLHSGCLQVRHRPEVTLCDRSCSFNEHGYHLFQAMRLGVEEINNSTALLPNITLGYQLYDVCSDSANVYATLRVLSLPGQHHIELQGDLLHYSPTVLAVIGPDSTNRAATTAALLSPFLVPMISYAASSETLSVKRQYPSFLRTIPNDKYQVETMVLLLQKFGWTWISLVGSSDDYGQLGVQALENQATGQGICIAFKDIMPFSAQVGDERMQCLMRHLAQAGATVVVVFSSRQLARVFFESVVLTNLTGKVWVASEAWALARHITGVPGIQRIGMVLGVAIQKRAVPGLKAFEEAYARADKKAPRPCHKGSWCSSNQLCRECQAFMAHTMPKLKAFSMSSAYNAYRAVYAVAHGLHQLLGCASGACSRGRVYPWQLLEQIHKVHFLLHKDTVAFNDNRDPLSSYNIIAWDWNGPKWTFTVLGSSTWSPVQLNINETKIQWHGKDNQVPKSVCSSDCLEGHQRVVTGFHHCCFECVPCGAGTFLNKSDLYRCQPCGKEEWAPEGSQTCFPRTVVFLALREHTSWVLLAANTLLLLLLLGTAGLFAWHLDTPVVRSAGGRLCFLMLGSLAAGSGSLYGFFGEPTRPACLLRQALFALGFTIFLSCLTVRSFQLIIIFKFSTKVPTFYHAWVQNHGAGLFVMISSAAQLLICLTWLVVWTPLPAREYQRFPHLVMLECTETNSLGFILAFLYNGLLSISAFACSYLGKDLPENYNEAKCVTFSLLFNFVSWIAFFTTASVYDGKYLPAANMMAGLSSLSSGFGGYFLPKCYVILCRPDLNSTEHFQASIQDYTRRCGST
T1 sequence (Q923K1 21-858 partner): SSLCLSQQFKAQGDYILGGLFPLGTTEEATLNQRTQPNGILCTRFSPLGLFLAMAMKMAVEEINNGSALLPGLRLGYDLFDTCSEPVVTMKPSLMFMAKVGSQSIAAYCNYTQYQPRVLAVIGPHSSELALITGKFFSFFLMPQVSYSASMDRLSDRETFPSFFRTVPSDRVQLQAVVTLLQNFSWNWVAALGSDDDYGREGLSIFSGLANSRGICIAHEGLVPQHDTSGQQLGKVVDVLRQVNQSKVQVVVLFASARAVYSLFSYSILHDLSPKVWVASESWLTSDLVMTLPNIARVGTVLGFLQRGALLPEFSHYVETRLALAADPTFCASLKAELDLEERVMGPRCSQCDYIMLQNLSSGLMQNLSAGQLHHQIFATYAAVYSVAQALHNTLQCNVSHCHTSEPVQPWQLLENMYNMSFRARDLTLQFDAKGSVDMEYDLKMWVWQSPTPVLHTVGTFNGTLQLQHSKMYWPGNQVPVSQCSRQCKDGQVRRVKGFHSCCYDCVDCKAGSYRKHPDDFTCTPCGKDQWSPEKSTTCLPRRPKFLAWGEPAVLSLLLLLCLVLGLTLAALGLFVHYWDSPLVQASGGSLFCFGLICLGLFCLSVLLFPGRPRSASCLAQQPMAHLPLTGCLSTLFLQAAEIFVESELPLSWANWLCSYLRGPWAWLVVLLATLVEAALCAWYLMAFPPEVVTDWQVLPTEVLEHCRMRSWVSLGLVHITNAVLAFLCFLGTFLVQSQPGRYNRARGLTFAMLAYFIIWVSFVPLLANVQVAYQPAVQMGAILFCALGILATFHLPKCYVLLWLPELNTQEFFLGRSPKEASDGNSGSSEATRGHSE
Assay: Calcium assay, hTAS1R1 mutant co-expressed with rTAS1R3
Format: cell-based, rat

## N[C@@H](CCC(=O)N[C@@H](CS)C(=O)NCC(=O)O)C(=O)O [GSH, γ-L-glutamyl-L-cysteinyl-glycine]
  EC50: > 30 mM
S306A
  effect of the added compound (1 mM) on the response to L-Glu: did not affect
  response to the agonist alone, vs WT: fully abolished

## CCCC(CCC)NC(=O)c1ccc2c(c1)OCO2 [S807, N-(heptan-4-yl)benzo[d][1,3]dioxole-5-carboxamide, reference compound]
S306A
  response to the agonist alone, vs WT: strongly affected
